Reference: ChEMBL document CHEMBL5046276 (J Med Chem, 2022)
The source made the active and inactive calls. No cut-off for these calls is given here.

What was measured:
[1] = AUC (0 to last) in BALB/c mouse at 5 mg/kg, ip measured after upto 24 hrs by LC-MS/MS analysis; assay type: ADME, organism-based; parameters: route intraperitoneal, dose 5 mg/kg, time <=24; conditions: in vivo
[2] = Cytotoxicity against HEK293T cells incubated for 72 hrs by CCK-8 assay; conditions: human
Histone deacetylase 1 = Histone deacetylase 1 (Homo sapiens, UniProt Q13547); assay: Potency index, ratio of test compound IC50 to Quisinostat IC50 for inhibition of recombinant human full length C-terminal His/FLAG tagged HDAC1 (1 to 482 residues) expressed in baculovirus-infected Sf9 cells using Ac-peptide as substrate incubated for 4 hrs
Plasmodium yoelii [3] = assay: Antimalarial activity against blood stage Plasmodium yoelii infected in BALB/c mouse assessed as parasite recrudescence by measuring parasitemia at 60 mg/kg, ip qd for 5 days and measured on 12 to 18 days; assay type: functional; conditions: time 12-18 day
Plasmodium falciparum [4] = assay: Antimalarial activity against synchronized Plasmodium falcipuram 3D7 infected in human RBC assessed as ring stage parasite killing at 40 nM treated […] and incubated for 12 hrs followed by compound washout and replacement with fresh medium without compounds and measured at 50 hrs post infection by Geimsa staining based microscopy; assay type: functional, organism-based
Histone deacetylase 3 = Histone deacetylase 3 (Homo sapiens, UniProt O15379); assay: Inhibition of human C-terminal His tagged HDAC3 (1 to 428 residues) expressed in baculovirus-infected Sf9 cells using Ac-peptide as substrate incubated for 4 hrs
[5] = AUC (0 to infinity) in BALB/c mouse at 5 mg/kg, ip measured after upto 24 hrs by LC-MS/MS analysis; assay type: ADME, organism-based; parameters: route intraperitoneal, dose 5 mg/kg, time <=24; conditions: in vivo
Plasmodium falciparum [6] = assay: (§1) Antimalarial activity against synchronized Plasmodium falcipuram 3D7 infected in human RBC assessed as irreversible inhibition of parasite growth at ring stage at 40 nM treated at 5 to 17 hpi incubated for 12 hrs followed by compound washout and replacement with fresh medium without compounds and measured after 4 days by flow cytometry; assay type: functional, organism-based
Plasmodium falciparum [7] = assay: Antimalarial activity against asexual blood stage chloroquine-resistant Plasmodium falciparum Dd2 assessed as parasite growth inhibition incubated for 72 hrs by SYBR Green I staining based fluorescence analysis; assay type: functional, organism-based; conditions: Dd2, 72 h
[8] = Apparent elimination half life in BALB/c mouse at 5 mg/kg, ip measured after upto 24 hrs by LC-MS/MS analysis; assay type: ADME, organism-based; conditions: in vivo, read-out: betat1/2(app) (converted)
Plasmodium yoelii [9] = assay: Antimalarial activity against blood stage Plasmodium yoelii infected in BALB/c mouse assessed as parasite killing by measuring parasitemia at 30 to 90 mg/kg, ip qd for 5 days and measured on day 60; assay type: functional, organism-based; conditions: dose 30-90 mg/kg, time 60.0 day
Plasmodium falciparum [10] = assay: In vivo inhibition of C-terminal glmS fused HDAC1 in Plasmodium falcipuram 3D7 assessed as inhibition of parasite growth by measuring downregulation of RBC invasion-related genes expression level by RNA-seq analysis; assay type: functional, organism-based
Plasmodium falciparum [11] = assay: Antimalarial activity against asexual blood stage wild-type Plasmodium falciparum 3D7 assessed as parasite growth inhibition incubated for 72 hrs by SYBR Green I staining based fluorescence analysis; assay type: functional, organism-based; conditions: 3D7, 72 h
Plasmodium falciparum [12] = assay: Antimalarial activity against late stage (IV) Plasmodium falciparum NF54 gametocytes transfected with p230p-Luc assessed as reduction in gametocyte viability incubated for 48 hrs by luciferase reporter gene based bioluminescence assay; assay type: functional, organism-based; conditions: NF54, 48 h
Plasmodium falciparum [13] = assay: Antimalarial activity against synchronized Plasmodium falcipuram 3D7 infected in human RBC assessed as fold reduction in reinvasion of ring stage parasites at 40 nM incubated for 12 hrs followed by compound washout and replacement with fresh medium without compounds and measured at 50 hrs post infection by flow cytometry; assay type: functional
[14] = Metabolic stability in human liver microsomes assessed as half life at […] incubated for 45 mins in presence of NADPH by LC/MS analysis; assay type: ADME, Microsome
[15] = Apparent clearance in BALB/c mouse at 5 mg/kg, ip measured after upto 24 hrs by LC-MS/MS analysis; assay type: ADME, organism-based; conditions: in vivo, read-out: CLz/F (converted)
Plasmodium falciparum [16] = assay: Antimalarial activity against blood stage asynchronous Plasmodium falcipuram 3D7 assessed as parasite growth inhibition by measuring parasitemia at 10 to 100 nM incubated for 12 to 24 hrs by flow cytometry; assay type: functional, organism-based; conditions: dose 10-100 nM, time 12-24 hrs
Plasmodium falciparum [17] = assay: Antimalarial activity against early stage (II) Plasmodium falciparum NF54 gametocytes transfected with p230p-Luc assessed as reduction in gametocyte viability incubated for 48 hrs by luciferase reporter gene based bioluminescence assay; assay type: functional, organism-based; conditions: NF54, 48 h
Plasmodium falciparum [18] = assay: as §1, with “trophozoite” for “ring”, “17” for “5”, “29” for “17”; assay type: functional, organism-based
[19] = In vivo inhibition of C-terminal glmS fused HDAC1 in Plasmodium falcipuram 3D7 assessed as inhibition of parasite growth incubated for 4 hrs followed by compound washout and replacement with fresh medium with compounds measured after 68 hrs by SYBR Green I staining based fluorescence analysis; assay type: functional, organism-based, Plasmodium falciparum
Plasmodium falciparum [20] = assay: In vivo inhibition of C-terminal TY1 fused HDAC1 in Plasmodium falcipuram 3D7 assessed as inhibition of parasite growth by measuring downregulation of RBC invasion-related genes expression level by RNA-seq analysis; assay type: functional, organism-based

Histone deacetylase 1, sequence (Q13547 whole entry, the tested form may be a part): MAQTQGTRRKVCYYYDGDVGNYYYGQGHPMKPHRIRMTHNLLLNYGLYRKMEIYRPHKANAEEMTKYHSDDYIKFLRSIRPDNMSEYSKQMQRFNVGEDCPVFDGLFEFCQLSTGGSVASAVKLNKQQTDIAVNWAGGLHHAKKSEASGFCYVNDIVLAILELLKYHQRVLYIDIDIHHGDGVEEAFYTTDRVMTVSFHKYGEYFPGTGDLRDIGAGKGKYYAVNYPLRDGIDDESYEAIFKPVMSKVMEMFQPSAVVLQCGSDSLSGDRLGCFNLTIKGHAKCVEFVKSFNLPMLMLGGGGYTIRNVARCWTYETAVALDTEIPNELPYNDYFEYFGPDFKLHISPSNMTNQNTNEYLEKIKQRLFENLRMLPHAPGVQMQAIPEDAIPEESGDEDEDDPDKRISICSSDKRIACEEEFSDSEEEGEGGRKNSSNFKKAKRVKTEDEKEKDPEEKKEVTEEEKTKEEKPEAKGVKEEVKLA
Histone deacetylase 3, sequence (O15379 whole entry, the tested form may be a part): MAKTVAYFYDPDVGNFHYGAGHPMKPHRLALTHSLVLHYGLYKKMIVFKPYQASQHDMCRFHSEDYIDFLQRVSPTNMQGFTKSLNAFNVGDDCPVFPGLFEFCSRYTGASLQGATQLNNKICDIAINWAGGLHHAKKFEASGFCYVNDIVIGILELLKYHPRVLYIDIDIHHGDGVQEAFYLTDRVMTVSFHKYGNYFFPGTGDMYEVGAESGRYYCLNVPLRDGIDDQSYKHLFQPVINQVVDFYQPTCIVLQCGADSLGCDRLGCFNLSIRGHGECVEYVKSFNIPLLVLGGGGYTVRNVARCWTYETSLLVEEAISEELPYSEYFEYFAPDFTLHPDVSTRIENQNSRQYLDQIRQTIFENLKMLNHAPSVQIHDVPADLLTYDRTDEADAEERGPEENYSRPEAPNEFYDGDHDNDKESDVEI

Cl.Cn1cc(CN2CC3(CCN(c4ncc(C(=O)NO)cn4)C3)C2)c2ccc(C#N)cc21
AUC(0-t) at 24 h [1]: 638 ng·h/mL
IC50 at 72 h [2]: 1210 nM
Ratio IC50 (Histone deacetylase 1): 3
Activity (Plasmodium yoelii [3]): 0.11%
Activity (Plasmodium falciparum [4]): Active
IC50 (Histone deacetylase 3): 5.2 nM
AUC(0-inf) [5]: 640 ng·h/mL
Activity (Plasmodium falciparum [6]): Active
IC50 (Plasmodium falciparum [7]): 1.61 nM
half-life [8]: 54.6 min
Activity (Plasmodium yoelii [9]): Active
inhibition (Plasmodium falciparum [10]): Active
IC50 (Plasmodium falciparum [11]): 1.26 nM
IC50 (Plasmodium falciparum [12]): 12.4 nM
fold change (FC) (Plasmodium falciparum [13]): 10
half-life [14]: > 120 min
CL/F [15]: 130 mL/min/kg
Activity (Plasmodium falciparum [16]): Active
IC50 (Plasmodium falciparum [17]): 15.4 nM
Activity (Plasmodium falciparum [18]): Active
IC50 [19]: 16.8 nM
inhibition (Plasmodium falciparum [20]): Active
